In the supplement of paper PMC10307832:

Experiments:
Assay in all cases: relative viability (nuclei count vs DMSO), 5 days (fraction); higher = more cells survive
VE-821 + Decitabine = compound: CS(=O)(=O)c1ccc(-c2cnc(N)c(C(=O)Nc3ccccc3)n2)cc1 [VE-821] + Nc1ncn([C@H]2C[C@H](O)[C@@H](CO)O2)c(=O)n1 [Decitabine] (partner 2 µM)
Outline: (§1)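 Relative viability is defined as nuclei in treated wells over nuclei in vehicle wells. Duplicate plates were run and medians reported. Lung cancer cell lines in 1536-well plates were dosed by pin tool one day after seeding, with one drug or with a fixed anchor-drug dose plus five library-drug doses (not always all listed) in √10 steps, and nuclei were counted after 5 days.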

VE-821 + Linsitinib = compound: CS(=O)(=O)c1ccc(-c2cnc(N)c(C(=O)Nc3ccccc3)n2)cc1 [VE-821] + C[C@]1(O)C[C@@H](c2nc(-c3ccc4ccc(-c5ccccc5)nc4c3)c3c(N)nccn32)C1 [Linsitinib] (partner 1 µM)
Outline: as §1

VE-821 + Crizotinib = compound: CS(=O)(=O)c1ccc(-c2cnc(N)c(C(=O)Nc3ccccc3)n2)cc1 [VE-821] + C[C@@H](Oc1cc(-c2cnn(C3CCNCC3)c2)cnc1N)c1c(Cl)ccc(F)c1Cl [Crizotinib] (partner 1 µM)
Outline: as §1

Ruxolitinib + Bortezomib = compound: N#CC[C@H](C1CCCC1)n1cc(-c2ncnc3[nH]ccc23)cn1 [Ruxolitinib] + CC(C)C[C@H](NC(=O)[C@H](Cc1ccccc1)NC(=O)c1cnccn1)B(O)O [Bortezomib] (partner 0.002 µM)
Outline: as §1

| Cell Line | relative viability (VE-821 + Decitabine; first compound 0.08 µM) | relative viability (VE-821 + Decitabine; first compound 0.253 µM) | relative viability (VE-821 + Decitabine; first compound 0.8 µM) | relative viability (VE-821 + Decitabine; first compound 2.53 µM) | relative viability (VE-821 + Decitabine; first compound 8 µM) | relative viability (VE-821 + Linsitinib; first compound 0.08 µM) | relative viability (VE-821 + Linsitinib; first compound 0.253 µM) | relative viability (VE-821 + Linsitinib; first compound 0.8 µM) | relative viability (VE-821 + Linsitinib; first compound 2.53 µM) | relative viability (VE-821 + Linsitinib; first compound 8 µM) | relative viability (VE-821 + Crizotinib; first compound 0.08 µM) | relative viability (VE-821 + Crizotinib; first compound 0.253 µM) | relative viability (VE-821 + Crizotinib; first compound 0.8 µM) | relative viability (VE-821 + Crizotinib; first compound 2.53 µM) | relative viability (VE-821 + Crizotinib; first compound 8 µM) | relative viability (Ruxolitinib + Bortezomib; first compound 0.08 µM) | relative viability (Ruxolitinib + Bortezomib; first compound 0.253 µM) | relative viability (Ruxolitinib + Bortezomib; first compound 0.8 µM) | relative viability (Ruxolitinib + Bortezomib; first compound 2.53 µM) | relative viability (Ruxolitinib + Bortezomib; first compound 8 µM) |
| --- | --- | --- | --- | --- | --- | --- | --- | --- | --- | --- | --- | --- | --- | --- | --- | --- | --- | --- | --- | --- |
| NCI-H2126 | 0.523 | 0.576 | 0.577 | 0.588 | 0.528 | 0.805 | 0.652 | 0.589 | 0.715 | 0.627 | 1.02 | 0.954 | 0.954 | 0.965 | 0.859 | 1.12 | 1.21 | 1.24 | 1.15 | 1.18 |
| NCI-H2347 | 0.624 | 0.595 | 0.678 | 0.693 | 0.723 | 1.02 | 1.05 | 1.07 | 1.21 | 1.06 | 0.723 | 0.794 | 0.684 | 0.983 | 0.713 |  | 0.907 | 0.931 | 0.917 | 1.2 |
| NCI-H2405 | 0.805 | 0.698 | 0.775 | 0.814 | 0.761 | 0.881 | 0.943 | 0.724 | 1.09 | 0.693 | 1.01 | 0.81 | 0.776 | 0.924 | 0.788 | 1.02 | 0.968 | 0.923 | 0.99 | 0.23 |
| NCI-H3122 | 0.474 | 0.482 | 0.485 | 0.46 | 0.428 | 1.06 | 0.955 | 0.989 | 1.05 | 0.967 | 0.283 | 0.281 | 0.32 | 0.356 | 0.331 | 1.02 | 0.986 | 0.92 | 0.926 | 0.873 |
| PC-3 [JPC-3] | 0.87 | 0.832 | 0.95 | 0.912 | 0.799 | 0.923 | 0.932 | 1.05 | 1.07 | 1.01 | 1.06 | 0.968 | 1.1 | 0.98 | 0.963 | 0.63 | 0.819 | 0.738 | 0.796 | 0.7 |
| PC-14 | 0.221 | 0.241 | 0.222 | 0.213 | 0.126 | 1.02 | 0.911 | 0.95 | 1.02 | 0.971 | 1.06 | 0.846 | 0.856 | 0.916 | 0.877 |  | 0.969 | 0.875 | 0.789 | 0.603 |
| RERF-LC-KJ | 0.731 | 0.681 | 0.633 | 0.725 | 0.609 | 0.902 | 0.871 | 0.819 | 0.875 | 0.753 | 0.839 | 0.806 | 0.775 | 0.701 | 0.693 | 1.09 | 1.11 | 1.2 | 1 | 0.986 |
| SK-LU-1 | 0.684 | 0.671 | 0.522 | 0.612 | 0.475 | 1.15 | 0.86 | 1.07 | 0.843 | 0.383 | 0.788 | 0.863 | 0.884 | 0.591 | 0.387 | 0.465 | 1.07 | 1.3 | 1.03 | 0.936 |
| SW 1573 | 0.538 | 0.458 | 0.433 | 0.511 | 0.416 | 0.912 | 0.859 | 0.789 | 0.874 | 0.874 | 0.944 | 0.675 | 0.636 | 0.963 | 0.855 | 0.981 | 1.04 | 1.01 | 0.939 | 0.896 |
